According to patent US6274619A, “Amidino substituted tetrahydrobenzo thiophene or furan derivatives and their use as urokinase inhibitors” (Fujisawa Pharmaceutical Co., Ltd., priority 1996, dated 2001):
Where a name gives a salt, the structure may show the parent alone.

Target: T1, human high molecular weight urokinase (Homo sapiens, UniProt P00749)
T1 construct: purchased Fujisawa Pharmaceutical Co., Ltd
Assay: Urokinase inhibiting effect (chromogenic substrate S-2288)
Assay type: biochemical
Conditions: 25 IU/ml urokinase, substrate S-2288, pH 7.5, 37° C., 30 minutes, A405
Experimental: Now in order to show the utility of the object compound (I) and pharmaceutically acceptable salts, the test datum on urokinase inhibiting effect of the representative compound of the compound (I) of this invention is shown in the following.
Test Compound was incubated at desired concentrations with 25 International Units (IU)/ml human high molecular weight urokinase (Fujisawa Pharmaceutical Co., Ltd.) and urokinase substrate (S-2288, H-D-Isoleucyl-L-prolyl-L-arginine-p-nitroaniline dihydrochloride; Chromagenix, Sweden; Japan distributors Daiichikagakuyakuhin Co., Ltd.) in a 100 μl final volume of 50 mM Tris, 100 mM NaCl, 1 mM Na2 EDTA, 0.01% (v/v) polyoxyethylenesorbitan monooleate (Tween 80), pH 7.5 (Buffer Z). Incubations were carried out at 37° C. for 30 minutes. Color was quantitated by measuring absorbance at 405 nm (A405) using EL312 Automated Microplate Reader.

IC50: 470 nM
Compound: CCCC=C1CCCc2sc(C(=N)N)cc21 [Compound A, 2-Amidino-4-n-butylidene-4,5,6,7-tetrahydrobenzo[b]thiophene hydrochloride]
